Laboratory results reported in patent US20100075965A1, “PI3 KINASE INHIBITORS AND METHODS OF THEIR USE” (Novartis AG, priority 2006, published 2010).
Read-outs that look alike come from different tables or passages of the source.

How the values were obtained:
[1] = test system: pSer473-Akt in A2780 cells; test: pSer473 Akt assay to monitor PI3K pathway in A2780 cells (MSD); assay type: cell-based; settings: Homo sapiens
Description: In this method, an assay for measuring the PI3K-mediated pSer^473-Akt status after treatment with representative inhibitor compounds of the preferred embodiments is described.
A2780 cells were cultured in DMEM supplemented with 10% FBS, L-glutamine, sodium pyruvate, and antibiotics. Cells were plated in the same medium at a density of 15,000 cells per well into 96 well tissue culture plates, with outside wells vacant, and allowed to adhere overnight.
Test compounds supplied in DMSO were diluted further into DMSO at 500 times the desired final concentrations before dilution into culture media to 2 times the final concentrations. Equal volumes of 2× compounds in media were added to the cells in 96 well plates and incubated at 37° C. for one hour. The media and compounds were then removed, the plates chilled and cells lysed in a lysis buffer (150 mM NaCl, 20 mM Tris pH 7.5, 1 mM EDTA, 1 mM EGTA, 1% Triton X-100) supplemented with phosphatase and protease inhibitors. After thorough mixing, lysates were transferred to both pSer473Akt and total Akt assay plates from Meso Scale Discovery (MSD), and incubated overnight with shaking at 4° C. The plates were washed with 1×MSD wash buffer and the captured analytes detected with secondary antibodies. After incubation with the secondary antibody at room temperature for 1-2 hours, the plates were washed again and 1.5× concentration of Read Buffer T (MSD) was added to the wells.
The assays were read on a SECTOR Imager 6000 instrument (Meso Scale Discovery). Ratios of the signal from pSer473Akt and total Akt assays were used to correct for any variability and the percent inhibition of pSer473Akt from the total signal seen in cells treated with compound versus DMSO alone was calculated and used to determine EC50 values for each compound as shown in Tables 1 and 2 in the column labeled “A2780 pAKT473 EC50”.

A2780 cells = test: Viability assay in A2780 (Cell Titer Glo); assay type: cell-based, human; settings: Homo sapiens, read-out: A2780 Cell prolif. EC50
In short: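 EC50 values come from Cell Titer Glo luminescence after 72 hrs of compound exposure at 37° C, run in duplicate. A2780 cells were plated at 1,000 per well in DMEM with 10% FBS and dosed with 3-fold serial dilutions.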

PI3 K Alpha = PI3 K Alpha (Homo sapiens, UniProt P42336); test: PI3 kinase phosphorylation assays (homogenous solution phase, one step solid phase, ATP depletion/KinaseGlo); assay type: biochemical
[2] = A2780 cells, read-out: A2780 pAKT 473 EC50
[3] = 1 h, A2780 cells, one hour incubation, read-out: A2780 pAKT473 EC50
[4] = ATP depletion assay, read-out: PI3 K Alpha IC50

Sequence of PI3 K Alpha (P42336 whole entry): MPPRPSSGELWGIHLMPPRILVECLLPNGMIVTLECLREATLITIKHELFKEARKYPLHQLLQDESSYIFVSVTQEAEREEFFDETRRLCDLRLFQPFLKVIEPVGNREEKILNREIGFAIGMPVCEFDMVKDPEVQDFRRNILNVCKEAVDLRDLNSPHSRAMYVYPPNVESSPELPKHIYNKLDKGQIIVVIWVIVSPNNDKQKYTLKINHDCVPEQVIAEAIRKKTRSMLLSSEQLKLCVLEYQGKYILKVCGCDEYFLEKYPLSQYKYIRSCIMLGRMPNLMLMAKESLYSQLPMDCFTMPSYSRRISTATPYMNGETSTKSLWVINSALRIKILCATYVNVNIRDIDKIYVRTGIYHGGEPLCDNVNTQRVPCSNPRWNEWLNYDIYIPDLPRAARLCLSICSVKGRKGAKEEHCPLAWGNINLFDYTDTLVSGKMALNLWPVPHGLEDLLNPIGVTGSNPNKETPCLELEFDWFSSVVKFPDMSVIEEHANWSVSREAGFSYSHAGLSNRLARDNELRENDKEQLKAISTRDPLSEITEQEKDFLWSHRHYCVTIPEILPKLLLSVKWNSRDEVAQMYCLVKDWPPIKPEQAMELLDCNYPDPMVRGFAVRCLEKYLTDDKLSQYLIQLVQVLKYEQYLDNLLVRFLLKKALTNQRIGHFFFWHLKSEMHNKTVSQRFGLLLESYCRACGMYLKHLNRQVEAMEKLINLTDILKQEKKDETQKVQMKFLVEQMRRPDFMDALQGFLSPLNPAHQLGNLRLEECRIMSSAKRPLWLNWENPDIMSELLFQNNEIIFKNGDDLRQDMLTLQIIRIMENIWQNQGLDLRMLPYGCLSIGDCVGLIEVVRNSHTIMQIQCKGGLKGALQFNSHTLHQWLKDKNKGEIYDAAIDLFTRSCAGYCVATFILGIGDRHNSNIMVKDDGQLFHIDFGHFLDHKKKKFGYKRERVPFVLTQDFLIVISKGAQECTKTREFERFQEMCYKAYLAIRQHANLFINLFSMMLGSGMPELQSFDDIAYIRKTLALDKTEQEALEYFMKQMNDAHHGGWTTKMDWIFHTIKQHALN
Sequence of PI3 K Alpha (P27986 whole entry partner): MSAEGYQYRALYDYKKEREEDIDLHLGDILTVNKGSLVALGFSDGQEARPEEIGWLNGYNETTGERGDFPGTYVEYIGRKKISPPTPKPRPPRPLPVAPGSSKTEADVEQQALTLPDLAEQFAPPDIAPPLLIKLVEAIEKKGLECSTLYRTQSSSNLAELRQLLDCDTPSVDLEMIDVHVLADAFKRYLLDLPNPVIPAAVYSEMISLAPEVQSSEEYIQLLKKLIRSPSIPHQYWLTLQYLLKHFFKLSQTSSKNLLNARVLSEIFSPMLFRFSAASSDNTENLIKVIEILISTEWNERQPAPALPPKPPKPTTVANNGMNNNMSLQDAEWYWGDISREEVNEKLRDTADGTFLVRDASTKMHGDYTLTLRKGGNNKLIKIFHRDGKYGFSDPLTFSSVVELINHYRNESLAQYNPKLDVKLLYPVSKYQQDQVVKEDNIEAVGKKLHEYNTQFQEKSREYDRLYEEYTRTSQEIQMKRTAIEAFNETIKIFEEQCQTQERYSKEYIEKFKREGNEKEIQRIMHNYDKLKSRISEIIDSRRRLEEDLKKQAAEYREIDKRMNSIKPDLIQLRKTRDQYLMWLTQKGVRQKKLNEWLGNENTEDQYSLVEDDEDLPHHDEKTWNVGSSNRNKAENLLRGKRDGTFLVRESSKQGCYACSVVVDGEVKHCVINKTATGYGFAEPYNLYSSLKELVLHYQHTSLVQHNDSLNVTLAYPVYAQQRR

SMILES	EC50 [1, 3] [nM]	EC50 (A2780 cells; A2780 cells, 72 hrs) [nM]	IC50 (PI3 K Alpha; [4]) [nM]	further results
Nc1ccc(-c2ccc3nc(NC(=O)C(F)(F)F)cn3c2)cn1 [Example 1, N-[6-(6-Amino-pyridin-3-yl)-imidazo[1,2-a]pyridin-2-yl]-2,2,2-trifluoro-acetamide]				EC50 [1, 2]: < 10000 nM; EC50 (A2780 cells; A2780 cells): < 25000 nM
Nc1ncc(-c2ccc3nc(NC(=O)C(F)(F)F)cn3c2)cn1 [Example 2, N-[6-(2-Amino-pyrimidin-5-yl)-imidazo[1,2-a]pyridin-2-yl]-2,2,2-trifluoro-acetamide]				IC50 (PI3 K Alpha; read-out: PI3K Alpha IC50): < 1000 nM; EC50 [1, 2]: < 25000 nM; EC50 (A2780 cells; A2780 cells): < 25000 nM
CC(=O)Nc1nc2ccc(-c3cnc(N)nc3)cc2s1 [Example 2-1, N-[6-(2-Amino-pyrimidin-5-yl)-benzothiazol-2-yl]-acetamide]	< 1000	< 10000		
CC(=O)Nc1nc2ccc(-c3ccc(N)nc3)cc2s1 [Example 2-2, N-[6-(6-Amino-pyridin-3-yl)-benzothiazol-2-yl]-acetamide]	< 1000	< 10000		
COC(=O)Nc1nc2ccc(-c3ccc(N)nc3)cc2s1 [Example 2-3, [6-(6-Amino-pyridin-3-yl)-benzothiazol-2-yl]-carbamic acid methyl ester]	< 1000	< 10000	< 1000	
CC(=O)Nc1nc2ccc(-c3cnc(N)c(C)c3)cc2s1 [Example 2-4, N-[6-(6-Amino-5-methyl-pyridin-3-yl)-benzothiazol-2-yl]-acetamide]	< 1000	< 10000		
Nc1ccc(-c2ccc3nc(NC(=O)CCCN4CCCCC4)sc3c2)cn1 [Example 2-5, N-[6-(6-Amino-pyridin-3-yl)-benzothiazol-2-yl]-4-piperidin-1-yl-butyramide]	< 1000	< 10000		
CC(=O)Nc1nc2ccc(-c3cnc(N)c(F)c3)cc2s1 [Example 2-6, N-[6-(6-Amino-5-fluoro-pyridin-3-yl)-benzothiazol-2-yl]-acetamide]	< 1000	< 10000	< 1000	
CCCNc1ccc(-c2ccc3nc(NC(C)=O)sc3c2)cn1 [Example 2-7, N-[6-(6-Propylamino-pyridin-3-yl)-benzothiazol-2-yl]-acetamide]	< 1000	< 25000	< 1000	
CC(=O)Nc1nc2ccc(-c3cnc(N)c(C(F)(F)F)c3)cc2s1 [Example 2-8, N-[6-(6-Amino-5-trifluoromethyl-pyridin-3-yl)-benzothiazol-2-yl]-acetamide]	< 1000	< 1000		
COc1cc(-c2ccc3nc(NC(C)=O)sc3c2)cnc1N [Example 2-9, N-[6-(6-Amino-5-methoxy-pyridin-3-yl)-benzothiazol-2-yl]-acetamide]				EC50 ([1]; A2780, 1 h, read-out: A2780 pAKT473 EC50): < 1000 nM; EC50 (A2780 cells; A2780, 72 h): < 1000 nM
Nc1ccc(-c2ccc3nc(NC(=O)CCCN4CCOCC4)sc3c2)cn1 [Example 2-10, N-[6-(6-Amino-pyridin-3-yl)-benzothiazol-2-yl]-4-morpholin-4-yl-butyramide]	< 1000	< 25000	< 1000	
Nc1ncc(-c2ccc3nc(NC(=O)CCCN4CCOCC4)sc3c2)cn1 [Example 2-11, N-[6-(2-Amino-pyrimidin-5-yl)-benzothiazol-2-yl]-4-morpholin-4-yl-butyramide]	< 1000	< 10000	< 1000	
Nc1ncc(-c2ccc3nc(NC(=O)CCCN4CCOCC4)sc3c2)cc1C(F)(F)F [Example 2-12, N-[6-(6-Amino-5-trifluoromethyl-pyridin-3-yl)-benzothiazol-2-yl]-4-morpholin-4-yl-butyramide]	< 1000	< 10000		
Nc1ccc(-c2ccc3nc(NC(=O)CN4CCOCC4)sc3c2)cn1 [Example 2-16, N-[6-(6-Amino-pyridin-3-yl)-benzothiazol-2-yl]-2-morpholin-4-yl-acetamide]	< 1000	< 25000	< 1000	
CC(=O)Nc1nc2ccc(-c3cnc(N)cc3C)cc2s1 [Example 2-18, N-[6-(6-Amino-4-methyl-pyridin-3-yl)-benzothiazol-2-yl]-acetamide]	< 10000	< 25000	< 1000	
Nc1ncc(-c2ccc3nc(NC(=O)CCCN4CCCCC4)sc3c2)cc1C(F)(F)F [Example 2-21, N-[6-(6-Amino-5-trifluoromethyl-pyridin-3-yl)-benzothiazol-2-yl]-4-piperidin-1-yl-butyramide]	< 1000	< 10000		
CNC(=O)Nc1nc2ccc(-c3ccc(N)nc3)cc2s1 [Example 2-23, 1-[6-(6-Amino-pyridin-3-yl)-benzothiazol-2-yl]-3-methyl-urea]	< 1000	< 10000	< 1000	
COCCOc1cc(-c2ccc3nc(NC(C)=O)cn3n2)cnc1N [Example 106, N-(6-(6-amino-5-(2-methoxyethoxy)pyridin-3-yl)imidazo[1,2-b]pyridazin-2-yl)acetamide]				EC50 [1, 2]: < 1000 nM
CCOc1cc(-c2ccc3nc(NC(C)=O)cn3c2)cnc1N [Example 111, N-(6-(6-amino-5-ethoxypyridin-3-yl)imidazo[1,2-a]pyridin-2-yl)acetamide]				EC50 [1, 2]: < 1000 nM
CCOc1cc(-c2ccc3nc(NC(C)=O)cn3n2)cnc1N [Example 119, N-(6-(6-amino-5-ethoxypyridin-3-yl)imidazo[1,2-b]pyridazin-2-yl)acetamide]				EC50 [1, 2]: < 1000 nM
Nc1ncc(-c2ccc3nc(NC(=O)[C@@H]4CCCCN4)cn3c2)cc1C(F)(F)F [Example 283, (S)-N-(6-(6-amino-5-(trifluoromethyl)pyridin-3-yl)imidazo[1,2-a]pyridin-2-yl)piperidine-2-carboxamide]				EC50 [1, 2]: < 1000 nM; EC50 (A2780 cells; A2780 cells): < 10000 nM

Continued, in another order:

EC50 [1, 3] [nM]	EC50 (A2780 cells; A2780 cells, 72 hrs) [nM]	IC50 (PI3 K Alpha; [4]) [nM]	SMILES	further results
< 10000	< 25000	< 1000	Nc1ccc(-c2ccc3nc(NC(=O)OCCN4CCOCC4)sc3c2)cn1 [Example 2-24, [6-(6-Amino-pyridin-3-yl)-benzothiazol-2-yl]-carbamic acid 2-morpholin-4-yl-ethyl ester]	
< 1000	< 10000	< 1000	CC(=O)Nc1nc2ccc(-c3cnc(N)c(CN(C)C)c3)cc2s1 [Example 2-25, N-[6-(6-Amino-5-dimethylamino-methyl-pyridin-3-yl)-benzothiazol-2-yl]-acetamide]	
< 1000	< 10000	< 1000	CC(=O)Nc1nc2ccc(-c3cnc(N)c(C(=O)N4CCOCC4)c3)cc2s1 [Example 2-26, N-{6-[6-Amino-5-(morpholine-4-carbonyl)-pyridin-3-yl]-benzothiazol-2-yl}-acetamide]	
< 1000	< 10000	< 1000	CC(=O)Nc1nc2ccc(-c3cnc(N)c(C(F)(F)F)c3)c(C)c2s1 [Example 2-27, N-[6-(6-Amino-5-trifluoromethyl-pyridin-3-yl)-7-methyl-benzothiazol-2-yl]-acetamide]	
< 1000	< 10000	< 1000	CC(=O)Nc1nc2ccc(-c3cnc(N)c(C(F)(F)F)c3)c(F)c2s1 [Example 2-30, N-[6-(6-Amino-5-trifluoromethyl-pyridin-3-yl)-7-fluoro-benzothiazol-2-yl]-acetamide]	
< 1000	< 25000	< 1000	CC(=O)Nc1nc2c(F)cc(-c3cnc(N)c(C(F)(F)F)c3)cc2s1 [Example 2-31, N-[6-(6-Amino-5-trifluoromethyl-pyridin-3-yl)-4-fluoro-benzothiazol-2-yl]-acetamide]	
